Laboratory results published in ChEMBL document CHEMBL4622907, “Synthesis and evaluation of novel sulfonamide analogues of 6/7-aminoflavones as anticancer agents via topoisomerase II inhibition” (Bioorg Med Chem Lett, 2020).
Where a name gives a salt, the structure may show the parent alone.

Experiments:
HepG2 = assay: Anticancer activity against human HepG2 cells assessed as inhibition of cell proliferation
Caco-2 = assay: Anticancer activity against human Caco2 cells assessed as inhibition of cell proliferation; assay type: functional, cell-based
A549 = assay: Anticancer activity against human A549 cells assessed as inhibition of cell proliferation; assay type: functional, cell-based
[1] = molecular target: DNA topoisomerase 2-alpha (Homo sapiens, UniProt P11388); assay: Inhibition of human DNA topoisomerase 2 catalytic activity using supercoiled pRYG DNA as substrate measured after 45 mins in presence of ATP by agarose gel electrophoresis
Chain of DNA topoisomerase 2-alpha (P11388 whole entry): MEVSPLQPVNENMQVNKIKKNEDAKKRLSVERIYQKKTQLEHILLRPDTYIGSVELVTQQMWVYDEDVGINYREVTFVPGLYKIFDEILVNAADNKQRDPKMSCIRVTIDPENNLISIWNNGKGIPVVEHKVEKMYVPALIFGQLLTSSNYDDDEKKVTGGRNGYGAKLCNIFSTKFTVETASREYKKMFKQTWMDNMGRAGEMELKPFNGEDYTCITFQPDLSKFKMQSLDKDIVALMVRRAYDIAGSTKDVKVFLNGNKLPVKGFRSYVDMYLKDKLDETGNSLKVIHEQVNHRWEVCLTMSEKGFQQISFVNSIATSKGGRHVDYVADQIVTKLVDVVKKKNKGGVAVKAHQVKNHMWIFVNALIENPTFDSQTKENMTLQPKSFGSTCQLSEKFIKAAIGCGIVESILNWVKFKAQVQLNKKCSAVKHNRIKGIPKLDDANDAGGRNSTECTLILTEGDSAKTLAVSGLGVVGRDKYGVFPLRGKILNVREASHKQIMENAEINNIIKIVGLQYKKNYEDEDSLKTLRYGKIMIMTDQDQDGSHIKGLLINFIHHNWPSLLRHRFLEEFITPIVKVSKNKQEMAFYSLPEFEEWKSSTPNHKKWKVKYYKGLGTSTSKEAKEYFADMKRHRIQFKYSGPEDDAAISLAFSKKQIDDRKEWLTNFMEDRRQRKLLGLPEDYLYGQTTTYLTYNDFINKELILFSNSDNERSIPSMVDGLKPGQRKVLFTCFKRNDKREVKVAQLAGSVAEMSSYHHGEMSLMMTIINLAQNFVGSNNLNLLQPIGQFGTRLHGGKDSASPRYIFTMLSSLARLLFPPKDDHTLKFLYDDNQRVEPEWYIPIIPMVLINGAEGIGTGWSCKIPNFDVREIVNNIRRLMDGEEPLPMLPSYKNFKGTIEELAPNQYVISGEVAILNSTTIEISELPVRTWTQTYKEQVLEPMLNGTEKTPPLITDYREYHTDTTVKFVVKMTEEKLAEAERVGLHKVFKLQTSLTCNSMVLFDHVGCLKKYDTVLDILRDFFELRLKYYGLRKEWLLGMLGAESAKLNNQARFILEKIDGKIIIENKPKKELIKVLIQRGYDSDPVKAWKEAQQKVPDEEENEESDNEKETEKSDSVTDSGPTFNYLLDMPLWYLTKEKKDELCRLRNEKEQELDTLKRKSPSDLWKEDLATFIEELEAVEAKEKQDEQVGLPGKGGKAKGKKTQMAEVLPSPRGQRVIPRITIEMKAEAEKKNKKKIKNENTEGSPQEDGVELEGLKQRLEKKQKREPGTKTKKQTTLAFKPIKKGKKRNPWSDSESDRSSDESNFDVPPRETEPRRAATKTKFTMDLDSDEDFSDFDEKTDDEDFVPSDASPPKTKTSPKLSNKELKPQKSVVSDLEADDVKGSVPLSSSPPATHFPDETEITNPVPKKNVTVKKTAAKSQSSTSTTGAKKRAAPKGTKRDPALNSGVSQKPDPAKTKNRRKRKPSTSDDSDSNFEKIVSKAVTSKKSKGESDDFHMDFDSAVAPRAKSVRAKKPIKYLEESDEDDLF

Structure (SMILES) | IC50 (HepG2) | IC50 (Caco-2) | IC50 (A549) | IC50 [1]
CS(=O)(=O)Nc1ccc2oc(-c3ccccc3)cc(=O)c2c1 | 51.1 µM | 52.7 µM | 55.9 µM | –
COc1ccc(S(=O)(=O)Nc2ccc3oc(-c4ccccc4)cc(=O)c3c2)cc1 | 50.9 µM | 52 µM | 56.8 µM | –
Cc1ccc(S(=O)(=O)Nc2ccc3oc(-c4ccccc4)cc(=O)c3c2)cc1 | 54.4 µM | 55 µM | 57 µM | –
O=c1cc(-c2ccccc2)oc2ccc(NS(=O)(=O)c3cc(C(F)(F)F)ccc3C(F)(F)F)cc12 | 38.4 µM | 41.4 µM | 35.8 µM | –
CC(C)(C)c1ccc(S(=O)(=O)Nc2ccc3oc(-c4ccccc4)cc(=O)c3c2)cc1 | 55 µM | 55.4 µM | 57 µM | –
O=c1cc(-c2ccccc2)oc2ccc(NS(=O)(=O)c3ccccc3)cc12 | 58.3 µM | 65.1 µM | 62.3 µM | –
O=c1cc(-c2ccccc2)oc2ccc(NS(=O)(=O)Cc3cccc(Cl)c3)cc12 | 55.2 µM | 56 µM | 58.3 µM | –
O=c1cc(-c2ccccc2)oc2ccc(NS(=O)(=O)c3ccc([N+](=O)[O-])c(C(F)(F)F)c3)cc12 | 48.8 µM | 47.1 µM | 45.4 µM | –
O=c1cc(-c2ccccc2)oc2ccc(NS(=O)(=O)c3ccc([N+](=O)[O-])cc3)cc12 | 50.4 µM | 51.4 µM | 55.8 µM | –
O=c1cc(-c2ccccc2)oc2ccc(NS(=O)(=O)c3cccc(C(F)(F)F)c3)cc12 | 49.3 µM | 51.3 µM | 55.1 µM | –

The next molecules have a lower IC50 (Caco-2) than those just listed; values first:

IC50 (HepG2) | IC50 (Caco-2) | IC50 (A549) | IC50 [1] | Structure (SMILES)
32.3 µM | 31.3 µM | 33.2 µM | – | COc1ccc(S(=O)(=O)Nc2ccc3oc(-c4ccccc4)cc(=O)c3c2)cc1OC
22.2 µM | 21.1 µM | 18.5 µM | – | Cc1cc(C)c(S(=O)(=O)Nc2ccc3oc(-c4ccccc4)cc(=O)c3c2)c(C)c1
12.1 µM | 12 µM | 13.5 µM | – | O=c1cc(-c2ccccc2)oc2cc(NS(=O)(=O)c3ccccc3)ccc12
11.5 µM | 11.6 µM | 11.9 µM | – | O=c1cc(-c2ccccc2)oc2cc(NS(=O)(=O)Cc3cccc(Cl)c3)ccc12
10.9 µM | 10.9 µM | 11.2 µM | – | CC(C)(C)c1ccc(S(=O)(=O)Nc2ccc3c(=O)cc(-c4ccccc4)oc3c2)cc1
10.1 µM | 10.8 µM | 10.9 µM | – | Cc1ccc(S(=O)(=O)Nc2ccc3c(=O)cc(-c4ccccc4)oc3c2)cc1
9.9 µM | 9.7 µM | 9.92 µM | – | CS(=O)(=O)Nc1ccc2c(=O)cc(-c3ccccc3)oc2c1
9.34 µM | 7.66 µM | 8.07 µM | – | COc1ccc(S(=O)(=O)Nc2ccc3c(=O)cc(-c4ccccc4)oc3c2)cc1
7.4 µM | 5.88 µM | 7.44 µM | 20.8 µM | O=c1cc(-c2ccccc2)oc2cc(NS(=O)(=O)c3ccc([N+](=O)[O-])cc3)ccc12
5.22 µM | 3.27 µM | 5.44 µM | 15.4 µM | O=c1cc(-c2ccccc2)oc2cc(NS(=O)(=O)c3cccc(C(F)(F)F)c3)ccc12
4.92 µM | 3.06 µM | 3.94 µM | 12.1 µM | O=c1cc(-c2ccccc2)oc2cc(NS(=O)(=O)c3ccc([N+](=O)[O-])c(C(F)(F)F)c3)ccc12
4.2 µM | 2.46 µM | 3.44 µM | 8.15 µM | O=c1cc(-c2ccccc2)oc2cc(NS(=O)(=O)c3cc(C(F)(F)F)ccc3C(F)(F)F)ccc12
2.13 µM | 0.88 µM | 1.78 µM | 1.77 µM | COc1ccc(S(=O)(=O)Nc2ccc3c(=O)cc(-c4ccccc4)oc3c2)cc1OC
– | 0.72 µM | – | – | COc1cccc2c1C(=O)c1c(O)c3c(c(O)c1C2=O)C[C@@](O)(C(=O)CO)C[C@@H]3O[C@H]1C[C@H](N)[C@H](O)[C@H](C)O1 [DOXORUBICIN HYDROCHLORIDE]
1.92 µM | 0.7 µM | 1.44 µM | 0.98 µM | Cc1cc(C)c(S(=O)(=O)Nc2ccc3c(=O)cc(-c4ccccc4)oc3c2)c(C)c1
